What was measured:
Assay type in all cases: cell-based
[1] = molecular target: RARβ (Mus musculus (Mouse), UniProt P22605); experiment: Transactivation assay for RARβ (gal4-RAR fusion, pFR-luc reporter, COS-7 cells), Table 2; conditions: COS-7 reporter, mean of three or more determinations, species not stated (method: mouse or human)
Description: (§1) Transcriptional transactivation assays were performed with gal4 fusion receptor constructs, created using each of the RAR ligand binding domains of either mouse or human, co-transfected with the pFR-luc (Stratagene) reporter construct in COS-7 cells.
(§2) Briefly, on day 1, 96 well plates were seeded with 8000 cells per well then left to recover overnight. On day 2, the cells were co-transfected with 100 ng of reporter plasmid and 10 ng of the appropriate receptor plasmid per well using lipofectamine (Invitrogen). On day 3, the lipofectamine containing media was replaced by a DMEM without phenol red, followed by the addition of test compound dissolved in 1 μL of DMSO to each well's 100 μL total volume. Finally, on day 4, the cells were lysed and their luciferase substrate was provided by the BrightGlo™ reagent (Promega), the plates were then read on the MicroBeta TriLux™ (Perkin Elmer).
(§3) Data for test compounds are quoted as EC50 values. Where replicate data has been generated, the data are quoted as the mean EC50 from the separate experiments.
(§4) EC50's values are reported as mean values of three or more determinations.

[2] = molecular target: RARα (Mus musculus (Mouse), UniProt P11416); experiment: Transactivation assay for RARα (gal4-RAR fusion, pFR-luc reporter, COS-7 cells), Table 2; conditions: for RARα/RARβ ratio: fold-selectivity for RARβ over RARα, >1 = selective for RARβ
Chain of RARα (P11416 183-417): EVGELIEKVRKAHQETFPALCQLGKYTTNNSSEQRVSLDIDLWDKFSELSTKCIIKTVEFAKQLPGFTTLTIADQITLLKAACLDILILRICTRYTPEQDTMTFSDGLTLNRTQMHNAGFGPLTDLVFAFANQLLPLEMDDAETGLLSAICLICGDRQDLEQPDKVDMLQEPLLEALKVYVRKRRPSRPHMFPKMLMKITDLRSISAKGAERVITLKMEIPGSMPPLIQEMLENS
Description: as §1, §2, §3, §4

[3] = molecular target: RARγ (Mus musculus (Mouse), UniProt P18911); experiment: Transactivation assay for RARγ (gal4-RAR fusion, pFR-luc reporter, COS-7 cells), Table 2; conditions: for RARγ/RARβ ratio: fold-selectivity for RARβ over RARγ, >1 = selective for RARβ
Chain of RARγ (P18911 185-419): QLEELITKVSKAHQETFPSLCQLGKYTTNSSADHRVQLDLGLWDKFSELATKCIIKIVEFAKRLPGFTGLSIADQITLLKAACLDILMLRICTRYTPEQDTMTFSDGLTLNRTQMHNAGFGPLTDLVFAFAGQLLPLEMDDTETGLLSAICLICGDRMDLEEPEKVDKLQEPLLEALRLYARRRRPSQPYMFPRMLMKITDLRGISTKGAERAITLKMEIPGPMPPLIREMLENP
Description: as §1, §2, §3, §4

[4] = Table 2, COS-7 reporter, mean of three or more determinations, inactive = no agonist action at highest concentration tested

Chain of RARβ (P22605 210-444): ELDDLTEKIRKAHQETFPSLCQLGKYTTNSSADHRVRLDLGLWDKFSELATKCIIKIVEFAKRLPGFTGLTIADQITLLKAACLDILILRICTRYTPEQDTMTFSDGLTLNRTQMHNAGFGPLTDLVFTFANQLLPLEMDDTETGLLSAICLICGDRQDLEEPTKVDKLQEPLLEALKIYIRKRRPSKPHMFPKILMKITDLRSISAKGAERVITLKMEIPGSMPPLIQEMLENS

EC50 [1] [nM] | EC50 [2, 4] [nM] | RARα/RARβ ratio [2] | EC50 [3, 4] [nM] | RARγ/RARβ ratio [3] | RARα EC50 [2, 4] | RARγ EC50 [3, 4] | Compound
16 | 160 | 10 | 36 | 2 | – | – | Cc1ccc(C)c2oc(-c3nc(-c4ccc(C(=O)O)cc4Br)no3)cc12 [BHBA-003, 3-Bromo-4-(5-(4,7-dimethylbenzofuran-2-yl)-1,2,4-oxadiazol-3-yl)benzoic acid]
10 | – | – | – | – | inactive | inactive | Cc1ccc(C)c2oc(-c3nc(-c4ccc(C(=O)O)cc4C(F)(F)F)no3)cc12 [BHBA-004, 4-(5-(4,7-Dimethylbenzofuran-2-yl)-1,2,4-oxadiazol-3-yl)-3-(trifluoromethyl)benzoic acid]
23 | 130 | 5 | 55 | 2 | – | – | Cc1ccc(C)c2oc(-c3nc(-c4ccc(C(=O)O)cc4N)no3)cc12 [BHBA-005, 3-Amino-4-(5-(4,7-dimethylbenzofuran-2-yl)-1,2,4-oxadiazol-3-yl)benzoic acid]
14 | 89 | 6 | 25 | 2 | – | – | Cc1cc(-c2noc(-c3cc4c(C)ccc(C)c4o3)n2)ccc1C(=O)O [BHBA-006, 2-Methyl-4-(5-(4,7-dimethylbenzofuran-2-yl)-1,2,4-oxadiazol-3-yl)benzoic acid]
2.2 | 16 | – | 8.4 | – | – | – | Cc1ccc(C)c2oc(-c3nc(-c4ccc(C(=O)O)c(F)c4)no3)cc12 [BHBA-007, 2-Fluoro-4-(5-(4,7-dimethylbenzofuran-2-yl)-1,2,4-oxadiazol-3-yl)benzoic acid]
1.9 | 17 | – | 6.8 | – | – | – | Cc1ccc(C)c2c(C)c(-c3nc(-c4ccc(C(=O)O)cc4)no3)oc12 [BHBA-008, 4-(5-(3,4,7-Trimethylbenzofuran-2-yl)-1,2,4-oxadiazol-3-yl)benzoic acid]
4.2 | 32 | 7.6 | 11 | 2.6 | – | – | Cc1ccc(C)c2c(C)c(-c3nc(-c4ccc(C(=O)O)cc4Cl)no3)oc12 [BHBA-009, 3-Chloro-4-(5-(3,4,7-trimethylbenzofuran-2-yl)-1,2,4-oxadiazol-3-yl)benzoic acid]
2.9 | 25 | 8 | 0.53 | 0.18 | – | – | Cc1ccc(C(C)C)c2cc(-c3nc(-c4ccc(C(=O)O)cc4)no3)oc12 [BHBA-010, 4-(5-(4-Isopropyl-7-methylbenzofuran-2-yl)-1,2,4-oxadazol-3-yl)benzoic acid]
4.3 | 26 | – | 14 | – | – | – | O=C(O)c1ccc(-c2noc(-c3cc4c(Cl)ccc(Cl)c4o3)n2)cc1 [BHBA-011, 4-(5-(4,7-Dichlorobenzofuran-2-yl)-1,2,4-oxadiazol-3-yl)benzoic acid]
17 | 67 | 4 | 17 | 1 | – | – | O=C(O)c1ccc(-c2noc(-c3cc4c(Cl)ccc(Cl)c4o3)n2)c(Cl)c1 [BHBA-012, 3-Chloro-4-(5-(4,7-dichlorobenzofuran-2-yl)-1,2,4-oxadiazol-3-yl)benzoic acid]
16 | 140 | – | 110 | – | – | – | Cc1cc(-c2noc(-c3cc4c(Cl)ccc(Cl)c4o3)n2)ccc1C(=O)O [BHBA-013, 2-Methyl-4-(5-(4,7-dichlorobenzofuran-2-yl)-1,2,4-oxadiazol-3-yl)benzoic acid]
2 | 12 | – | 11 | – | – | – | O=C(O)c1ccc(-c2noc(-c3cc4c(Cl)ccc(Cl)c4o3)n2)cc1F [BHBA-014, 2-Fluoro-4-(5-(4,7-dichlorobenzofuran-2-yl)-1,2,4-oxadiazol-3-yl)benzoic acid]
2.9 | 23 | – | 12 | – | – | – | Cc1ccc(Cl)c2oc(-c3nc(-c4ccc(C(=O)O)cc4)no3)cc12 [BHBA-015, 4-(5-(7-Chloro-4-methylbenzofuran-2-yl)-1,2,4-oxadiazol-3-yl)benzoic acid]
2.7 | 18 | 7 | 6 | 2 | – | – | Cc1ccc(Cl)c2cc(-c3nc(-c4ccc(C(=O)O)cc4)no3)oc12 [BHBA-016, 4-(5-(4-Chloro-7-methylbenzofuran-2-yl)-1,2,4-oxadiazol-3-yl)benzoic acid]
7.4 | 56 | 8 | 18 | 2.4 | – | – | Cc1ccc(Cl)c2oc(-c3nc(-c4ccc(C(=O)O)cc4Cl)no3)cc12 [BHBA-017, 3-Chloro-4-(5-(7-chloro-4-methylbenzofuran-2-yl)-1,2,4-oxadiazol-3-yl)benzoic acid]
41 | 150 | – | 140 | – | – | – | Cc1ccc(Cl)c2cc(-c3nc(-c4ccc(C(=O)O)cc4Cl)no3)oc12 [BHBA-018, 3-Chloro-4-(5-(4-chloro-7-methylbenzofuran-2-yl)-1,2,4-oxadiazol-3-yl)benzoic acid]
2.5 | 19 | 7.6 | 5.3 | 2 | – | – | O=C(O)c1ccc(-c2noc(-c3cc4c(C(F)(F)F)ccc(F)c4o3)n2)cc1 [BHBA-019, 4-(5-(7-Fluoro-4-(trifluoromethyl)benzofuran-2-yl)-1,2,4-oxadiazol-3-yl)benzoic acid]
8 | 60 | – | 23 | – | – | – | O=C(O)c1ccc(-c2noc(-c3cc4c(C(F)(F)F)ccc(F)c4o3)n2)c(Cl)c1 [BHBA-020, 3-Chloro-4-(5-(7-fluoro-4-(trifluoromethyl)benzofuran-2-yl)-1,2,4-oxadiazol-3-yl)benzoic acid]
3.4 | 30 | 9 | 6.3 | 2 | – | – | Cc1ccc(C)c2sc(-c3nc(-c4ccc(C(=O)O)cc4)no3)cc12 [BHBA-021, 4-(5-(4,7-Dimethylbenzo[b]thiophen-2-yl)-1,2,4-oxadiazol-3-yl)benzoic acid]
16 | 77 | 5 | 18 | 1.1 | – | – | Cc1ccc(C)c2sc(-c3nc(-c4ccc(C(=O)O)cc4Cl)no3)cc12 [BHBA-022, 3-Chloro-4-(5-(4,7-dimethylbenzo[b]thiophen-2-yl)-1,2,4-oxadiazol-3-yl)benzoic acid]
– | – | – | 83 | – | – | – | Cc1ccc(C)c2oc(-c3nc(-c4ccc(C(=O)O)cc4)no3)nc12 [BHBA-023, 4-(5-(4,7-Dimethylbenzo[d]oxazol-2-yl)-1,2,4-oxadiazol-3-yl)benzoic acid]
24 | 180 | 7.5 | 47 | 2 | – | – | Cc1ccc(C)c2oc(-c3nc(-c4ccc(C(=O)O)cc4Cl)no3)nc12 [BHBA-024, 3-Chloro-4-(5-(4,7-dimethylbenzo[d]oxazol-2-yl)-1,2,4-oxadiazol-3-yl)benzoic acid]
41 | 150 | – | 140 | – | – | – | Cc1cc(-c2noc(-c3nc4c(C)ccc(C)c4o3)n2)ccc1C(=O)O [BHBA-025, 4-(5-(4,7-Dimethylbenzo[d]oxazol-2-yl)-1,2,4-oxadiazol-3-yl)-2-methylbenzoic acid]
13 | 47 | – | 77 | – | – | – | Cc1ccc(C)c2oc(-c3nc(-c4ccc(C(=O)O)c(F)c4)no3)nc12 [BHBA-026, 4-(5-(4,7-Dimethylbenzo[d]oxazol-2-yl)-1,2,4-oxadiazol-3-yl)-2-fluorobenzoic acid]
9 | 61 | 6.7 | 25 | 2.7 | – | – | Cc1ccc(C)c2sc(-c3nc(-c4ccc(C(=O)O)cc4)no3)nc12 [BHBA-027, 4-(5-(4,7-Dimethylbenzo[d]thiazol-2-yl)-1,2,4-oxadiazol-3-yl)benzoic acid]
8.2 | 26 | 3 | 8.3 | 1 | – | – | Cc1ccc(C)c2oc(-c3noc(-c4ccc(C(=O)O)cc4)n3)cc12 [BHBA-028, 4-(3-(4,7-Dimethylbenzofuran-2-yl)-1,2,4-oxadiazol-5-yl)benzoic acid]
14 | 210 | 15 | 19 | 1.3 | – | – | Cc1cc(C(=O)O)ccc1-c1nc(-c2cc3c(C)ccc(C)c3o2)no1 [BHBA-029, 4-(3-(4,7-Dimethylbenzofuran-2-yl)-1,2,4-oxadiazol-5-yl)-3-methylbenzoic acid]
10 | 58 | 5.8 | 18 | 1.8 | – | – | Cc1ccc(C)c2oc(-c3noc(-c4ccc(C(=O)O)cc4F)n3)cc12 [BHBA-030, 4-(3-(4,7-Dimethylbenzofuran-2-yl)-1,2,4-oxadiazol-5-yl)-3-fluorobenzoic acid]
